The source of these data is EPA's ToxValDB 9.5 (doi:10.2903/j.efsa.2013.3143).

Where “and” joins values, the source holds several entries; their conditions need not be identical. Equal entries are not always repeated.

The test system of data set [1] is Mus musculus.
Data set [2] relates to Rattus norvegicus. Particulars: for LD50: acute, oral, mortality.
Data set [3] relates to Typhlodromus pyri. The experiment in a line: LR50; higher = less toxic. Particulars: chronic/long-term; duration: 7 days; mortality.
Data set [4] has as its system Colinus virginianus.
Data set [5] concerns Tagia sp.
Data set [6] concerns Cyprinodon variegatus. Particulars: acute; duration: 96 hours; mortality.
For data set [7], the system named is Hypoaspis aculeifer. Particulars: chronic/long-term; duration: 16 days; mortality.
Data set [8] deals with Apis mellifera. The note with it: acute, mortality.
Data set [9] has as its system Daphnia magna. Particulars: chronic/long-term; duration: 21 days; reproduction.
The test system of data set [10] is Bibionidae. The note with it: chronic/long-term; duration: 28 days; other.
The test system of data set [11] is Oncorhynchus mykiss. The note with it: chronic/long-term; duration: 90 days; development.
In data set [12] the test system is Canidae. The note with it: chronic; duration: 1 years; oral; Dog Other; organ weight.

`CNC(=O)c1cc(Br)[nH]n1` [5-Bromo-N-methyl-1H-pyrazole-3-carboxamide] showed an LD50 in data set [1] (acute, oral, mortality) of more than 2000 mg/kg-day.
In the case of `Cc1cc(Cl)cc2c(=O)n(C)c(-c3cc(Br)[nH]n3)nc12` [Chlorantraniliprole metabolite (IN-LBA24)], in [2], the LD50 is more than 2000 mg/kg-day.
Turning to `CNC(=O)c1cc(Cl)cc(C)c1NC(=O)c1cc(Br)nn1-c1ncccc1Cl` [Chlorantraniliprole], the LR50 in data set [3] is more than 750 g/ha. The LC50 in data set [4] (acute, oral, diet, mortality) was more than 1730 mg/kg-day; in data set [5] (acute, duration: 14 days, mortality), more than 1000 mg/kg; in [6] it was more than 12 µg/mL. The LD50 was more than 2250 mg/kg-day in data set [4] (acute, oral, mortality); more than 5000 mg/kg-day in data set [2]; more than 104 µg/piece in data set [8] (duration: 48 hours, oral, unspecified); more than 4 µg/piece in data set [8] (duration: 72 hours, dermal). Further, the no observed adverse effect level (NOAEL) stood at 10.1 mg/kg-day in data set [4] (reproduction developmental, reproduction); 156 mg/kg-day in data set [2] (chronic, duration: 2 years, organ weight); 1200 mg/kg-day in data set [2] (reproduction developmental, no effects); 158 mg/kg-day in [1] (chronic, duration: 18 months, histopathology: nonneoplastic); 278 mg/kg-day in data set [12]. In addition, the NOEC in [5] (chronic/long-term, duration: 56 days, reproduction) is 1000 mg/kg; in [7], 100 mg/kg; in data set [9], 0.00447 mg/L; in data set [10], 0.0025 mg/L and 0.005 mg/kg; in data set [11], 0.11 mg/L.
